Source: patent publication EP1271240B1, “Silver halide color photographic material” (KONICA CORPORATION, priority 2001, dated 2003)

Assay: Dissolution temperature of coupler in tricresyl phosphate and ethyl acetate
Assay type: physicochemical
Conditions: 1 g coupler, tricresyl phosphate of equal weight and ethyl acetate of three times the weight; temperature at which the coupler was completely dissolved
Text: Structures of comparative couplers a to e are respectively shown below. [drawing 115] [drawing 116] [drawing 117] [drawing 118] [drawing 119]

Dissolution Temperature [°C]	Compound
60	CCC(C)(C)c1ccc(OCCCCNC(=O)c2nn3c(-c4cc(Cl)cc(Cl)c4)n[nH]c3c2Cl)c(C(C)(C)CC)c1 [Coupler b]
60	CCC(C)(C)c1ccc(OCCCCNC(=O)C(NC(=O)c2nn3c(-c4ccc(Cl)c(Cl)c4)n[nH]c3c2Cl)C(C)C)c(C(C)(C)CC)c1 (centres unmarked) [Coupler d]
